This note sets out measurements from US10772893B2, “2-(morpholin-4-yl)-1,7-naphthyridines” (BAYER PHARMA AKTIENGESELLSCHAFT, priority 2014, dated 2020).

SMILES strings stand for the structures.

The subject of the experiment is HeLa cells. In words: Proliferation assay, crystal violet staining. Particulars: Homo sapiens, 96 h, read-out: Inhibition of HeLa cell proliferation, HeLa cells, 4 days incubation.

Regarding `CSCc1cc(N2CCOC[C@H]2C)nc2c(-c3ccn[nH]3)nccc12` [Example 186, 2-[(3R)-3-methylmorpholin-4-yl]-4-[(methylsulfanyl)methyl]-8-(1H-pyrazol-5-yl)-1,7-naphthyridine], the IC50 was 789 nM.
`C[C@@H]1COCCN1c1cc(C2(O)CCCCC2)c2ccnc(-c3ccn[nH]3)c2n1` [Example 189, 1-{2-[(3R)-3-methylmorpholin-4-yl]-8-(1H-pyrazol-5-yl)-1,7-naphthyridin-4-yl}cyclohexanol]: the IC50 was determined as 1010 nM.
Under `CS(=O)(=NC#N)c1ccc(-c2cc(N3CCOCC3)nc3c(-c4ccn[nH]4)nccc23)cc1` (centres unmarked) [Example 191, (methyl{4-[2-(morpholin-4-yl)-8-(1H-pyrazol-5-yl)-1,7-naphthyridin-4-yl]phenyl}oxido-λ^6-sulfanylidene)cyanamide] stands 2120 nM; under `C[C@@H]1COCCN1c1cc(-c2[nH]nnc2C2CC2)c2ccnc(-c3ccn[nH]3)c2n1` [Example 194, 4-(4-cyclopropyl-1H-1,2,3-triazol-5-yl)-2-[(3R)-3-methylmorpholin-4-yl]-8-(1H-pyrazol-5-yl)-1,7-naphthyridine], 892 nM; under `CC[S+]([O-])c1cc(N2CCOCC2)nc2c(-c3ccn[nH]3)nccc12` (centres unmarked) [Example 195, 4-ethylsulfinyl-2-(morpholin-4-yl)-8-(1H-pyrazol-5-yl)-1,7-naphthyridine], 3010 nM.
Next, `O=S(=O)(c1ccccc1)c1cc(N2CCOCC2)nc2c(-c3ccn[nH]3)nccc12` [Example 198, 2-(morpholin-4-yl)-4-(phenylsulfonyl)-8-(1H-pyrazol-5-yl)-1,7-naphthyridine]: greater than 3000 nM.
Next, `CCS(=O)(=O)c1cc(N2CCOCC2)nc2c(-c3ccn[nH]3)nccc12` [Example 200, 4-(ethylsulfonyl)-2-(morpholin-4-yl)-8-(1H-pyrazol-5-yl)-1,7-naphthyridine]: 1960 nM; `[O-][S+](c1ccccc1)c1cc(N2CCOCC2)nc2c(-c3ccn[nH]3)nccc12` (centres unmarked) [Example 201, 2-(morpholin-4-yl)-4-(phenylsulfinyl)-8-(1H-pyrazol-5-yl)-1,7-naphthyridine]: greater than 3000 nM.
Regarding `C[S+]([O-])c1cc(N2CCOCC2)nc2c(-c3ccn[nH]3)nccc12` (centres unmarked) [Example 202, 4-(methylsulfinyl)-2-(morpholin-4-yl)-8-(1H-pyrazol-5-yl)-1,7-naphthyridine], the IC50 came out at 1530 nM.
Under `C[C@@H]1COCCN1c1cc(C2CC[S+]([O-])CC2)c2ccnc(-c3ccn[nH]3)c2n1` (stereo partly drawn) [Example 203, 2-[(3R)-3-methylmorpholin-4-yl]-4-[1-oxidotetrahydro-2H-thiopyran-4-yl]-8-(1H-pyrazol-5-yl)-1,7-naphthyridine] stands 998 nM.
Next, `C[C@@H]1COCCN1c1cc(C2CCS(=O)(=O)CC2)c2ccnc(-c3ccn[nH]3)c2n1` [Example 204, 4-(1,1-dioxidotetrahydro-2H-thiopyran-4-yl)-2-[(3R)-3-methylmorpholin-4-yl]-8-(1H-pyrazol-5-yl)-1,7-naphthyridine]: 568 nM.
Under `COc1ccc(Sc2cc(N3CCOCC3)nc3c(-c4ccn[nH]4)nccc23)cc1` [Example 213, 4-[(4-methoxyphenyl)sulfanyl]-2-(morpholin-4-yl)-8-(1H-pyrazol-5-yl)-1,7-naphthyridine] stands greater than 3000 nM; under `Cc1cc(-c2cc(N3CCOCC3)nc3c(-c4ccn[nH]4)nccc23)n[nH]1` [Example 214, 4-(5-methyl-1H-pyrazol-3-yl)-2-(morpholin-4-yl)-8-(1H-pyrazol-5-yl)-1,7-naphthyridine], greater than 3000 nM; under `O=C1CCCN1c1cc(N2CCOCC2)nc2c(-c3ccn[nH]3)nccc12` [Example 215, 1-[2-(morpholin-4-yl)-8-(1H-pyrazol-5-yl)-1,7-naphthyridin-4-yl]pyrrolidin-2-one], greater than 3000 nM.
